In US20050107311A1, “Buffalo milk gangliosides” (priority 2001, published 2005):

Tests used:
[1] = biological target: B-subunit of cholera toxin (CTB) (Vibrio cholerae serotype O1, UniProt P01556)
[2] = tested on: nar-3, a rotavirus toxin; assay: Binding to rotavirus toxin nar-3; settings: GD3 from Folch LP vs UP
[3] = tested on: rotavirus particles; assay: Binding to rotavirus particles

B-subunit of cholera toxin (CTB), sequence (P01556 22-124 limits assumed): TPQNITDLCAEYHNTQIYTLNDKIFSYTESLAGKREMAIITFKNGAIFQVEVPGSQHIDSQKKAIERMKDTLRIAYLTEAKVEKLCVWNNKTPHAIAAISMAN

| Substance | binding of cholera toxin subunit B (CTB) [1] | binding to nar-3 [2] | also measured |
| --- | --- | --- | --- |
| GD1a | not capable of binding the toxin | – | – |
| GD3 [GD3 species isolated from the organic LP] | – | bound to nar-3 | – |
| GD3 [GD3 isolated from the aqueous UP] | – | did not bind to this toxin | – |
| GM1 [GM1 isolated from buffalo milk serum] | binds to cholera toxin subunit B | – | – |
| GM1 [bovine-brain GM1 species] | bind CTB | – | – |
| GM3 [GM3 species] | – | – | binding of rotavirus particles [3]: bind rotavirus particles |
